Experimental findings from ChEMBL document CHEMBL4602719, “Discovery of Potent, Selective, and Orally Bioavailable Inhibitors of USP7 with In Vivo Antitumor Activity” (J Med Chem, 2020) are described below.

Where only a bound is given, the exact number is not on record here.

Test [1] deals with Ubiquitin carboxyl-terminal hydrolase 8 (Homo sapiens, UniProt P40818). The test is described as follows: Inhibition of human USP8 expressed in Escherichia coli assessed as cleavage of Ubiquitin-Rhodamine110-glycine to Ubiquitin and Rhodamine110-glycine using Ubiquitin-Rhodamine110-glycine as substrate by fluorescence based analysis.
For test [2], the target named is T1, Ubiquitin carboxyl-terminal hydrolase 47 (Homo sapiens, UniProt Q96K76).
T1 sequence (Q96K76 whole entry): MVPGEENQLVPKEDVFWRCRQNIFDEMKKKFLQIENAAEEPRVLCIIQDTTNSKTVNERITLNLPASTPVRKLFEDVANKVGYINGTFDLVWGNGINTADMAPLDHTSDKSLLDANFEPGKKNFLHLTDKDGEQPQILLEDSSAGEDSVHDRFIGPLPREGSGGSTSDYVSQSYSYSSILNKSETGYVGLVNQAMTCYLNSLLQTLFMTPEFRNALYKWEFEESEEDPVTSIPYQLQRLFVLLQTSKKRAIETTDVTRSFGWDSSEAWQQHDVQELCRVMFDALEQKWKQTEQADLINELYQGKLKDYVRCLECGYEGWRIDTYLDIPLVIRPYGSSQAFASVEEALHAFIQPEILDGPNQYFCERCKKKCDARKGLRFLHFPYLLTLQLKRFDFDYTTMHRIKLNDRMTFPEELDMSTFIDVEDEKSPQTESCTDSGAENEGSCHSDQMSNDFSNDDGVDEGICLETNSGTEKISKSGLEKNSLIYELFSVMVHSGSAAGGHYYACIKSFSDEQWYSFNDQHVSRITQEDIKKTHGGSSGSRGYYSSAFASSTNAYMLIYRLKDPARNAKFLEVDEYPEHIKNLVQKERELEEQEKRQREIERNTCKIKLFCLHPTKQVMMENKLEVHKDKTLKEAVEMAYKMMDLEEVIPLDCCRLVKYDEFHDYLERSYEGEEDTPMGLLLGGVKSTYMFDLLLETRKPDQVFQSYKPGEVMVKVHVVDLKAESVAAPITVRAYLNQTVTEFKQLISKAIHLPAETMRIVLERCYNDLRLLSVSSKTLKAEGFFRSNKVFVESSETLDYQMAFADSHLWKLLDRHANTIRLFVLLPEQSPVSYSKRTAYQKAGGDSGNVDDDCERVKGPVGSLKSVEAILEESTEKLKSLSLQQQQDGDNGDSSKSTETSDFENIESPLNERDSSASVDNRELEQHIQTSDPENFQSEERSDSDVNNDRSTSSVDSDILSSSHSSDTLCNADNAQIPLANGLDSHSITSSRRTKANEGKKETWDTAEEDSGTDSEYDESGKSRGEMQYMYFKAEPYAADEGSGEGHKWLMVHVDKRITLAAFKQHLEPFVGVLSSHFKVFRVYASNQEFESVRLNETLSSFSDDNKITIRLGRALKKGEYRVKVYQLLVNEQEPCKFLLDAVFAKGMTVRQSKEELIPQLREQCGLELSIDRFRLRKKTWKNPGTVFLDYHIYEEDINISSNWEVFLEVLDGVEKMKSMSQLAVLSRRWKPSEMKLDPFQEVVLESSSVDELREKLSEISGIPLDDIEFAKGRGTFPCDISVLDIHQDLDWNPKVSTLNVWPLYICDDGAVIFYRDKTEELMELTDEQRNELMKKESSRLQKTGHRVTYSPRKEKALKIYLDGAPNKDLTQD
The test is described as follows: Inhibition of USP47 (unknown origin) by biochemical assay.

Test [3] has as its target Ubiquitin carboxyl-terminal hydrolase 19 (Homo sapiens, UniProt O94966). Nature of the test: Inhibition of human GST-tagged USP19 (1 to 1290 residues) expressed in Escherichia coli assessed as cleavage of Ubiquitin-Rhodamine110-glycine to Ubiquitin and Rhodamine110-glycine using Ubiquitin-Rhodamine110-glycine as substrate by fluorescence based analysis.
The target of test [4] is Ubiquitin carboxyl-terminal hydrolase 35 (Homo sapiens, UniProt Q9P2H5). The test is described as follows: Inhibition of USP35 (unknown origin).
In test [5] the target is Deubiquitinating protein VCPIP1 (Homo sapiens, UniProt Q96JH7). Nature of the test: Inhibition of human GST-tagged VCPIP CD (25 to 561 residues) expressed in Escherichia coli assessed as cleavage of Ubiquitin-Rhodamine110-glycine to Ubiquitin and Rhodamine110-glycine using Ubiquitin-Rhodamine110-glycine as substrate by fluorescence based analysis.
The next test is filed under the species Homo sapiens. Nature of the test: Selectivity index, ratio of IC50 for human GST-tagged VCPIP CD (25 to 561 residues) expressed in Escherichia coli assessed as cleavage of Ubiquitin-Rhodamine110-glycine to Ubiquitin and Rhodamine110-glycine using Ubiquitin-Rhodamine110-glycine as substrate by fluorescence based analysis to IC50 for inhibition of recombinant full length USP7 (unknown origin) using ubiquintin-rhodamine as substrate preincubated for 30 mins followed by substrate addition measured after 1 hr by fluorescence-based Envision plate reader assay.

Ubiquitin carboxyl-terminal hydrolase 35, sequence (Q9P2H5 whole entry, the tested form may be a part): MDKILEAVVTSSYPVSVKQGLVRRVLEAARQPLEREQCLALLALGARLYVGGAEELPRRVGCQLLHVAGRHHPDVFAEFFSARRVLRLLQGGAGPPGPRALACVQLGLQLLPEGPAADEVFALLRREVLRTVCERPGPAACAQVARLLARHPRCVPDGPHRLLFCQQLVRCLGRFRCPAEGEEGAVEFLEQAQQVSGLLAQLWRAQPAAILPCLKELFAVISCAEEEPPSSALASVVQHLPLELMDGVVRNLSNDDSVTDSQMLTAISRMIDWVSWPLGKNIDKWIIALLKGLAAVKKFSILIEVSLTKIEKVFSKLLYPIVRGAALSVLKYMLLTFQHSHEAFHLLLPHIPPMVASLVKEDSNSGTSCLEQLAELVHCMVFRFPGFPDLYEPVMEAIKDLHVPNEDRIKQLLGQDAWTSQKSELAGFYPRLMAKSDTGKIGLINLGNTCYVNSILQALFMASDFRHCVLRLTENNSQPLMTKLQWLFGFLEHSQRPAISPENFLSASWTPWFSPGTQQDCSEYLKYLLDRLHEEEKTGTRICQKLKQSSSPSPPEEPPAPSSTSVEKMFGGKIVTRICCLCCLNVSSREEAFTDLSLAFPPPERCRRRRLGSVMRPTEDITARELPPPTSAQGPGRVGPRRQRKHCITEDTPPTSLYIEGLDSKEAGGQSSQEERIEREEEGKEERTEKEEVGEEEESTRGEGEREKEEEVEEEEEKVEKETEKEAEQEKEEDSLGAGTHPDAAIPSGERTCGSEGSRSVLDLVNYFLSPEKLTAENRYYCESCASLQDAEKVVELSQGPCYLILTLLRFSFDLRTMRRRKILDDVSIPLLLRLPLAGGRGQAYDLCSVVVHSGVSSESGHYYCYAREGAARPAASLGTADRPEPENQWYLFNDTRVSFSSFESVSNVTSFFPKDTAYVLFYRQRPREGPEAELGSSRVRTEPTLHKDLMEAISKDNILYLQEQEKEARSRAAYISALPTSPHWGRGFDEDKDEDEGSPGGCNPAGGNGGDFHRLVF
Ubiquitin carboxyl-terminal hydrolase 19, sequence (O94966 whole entry, the tested form may be a part): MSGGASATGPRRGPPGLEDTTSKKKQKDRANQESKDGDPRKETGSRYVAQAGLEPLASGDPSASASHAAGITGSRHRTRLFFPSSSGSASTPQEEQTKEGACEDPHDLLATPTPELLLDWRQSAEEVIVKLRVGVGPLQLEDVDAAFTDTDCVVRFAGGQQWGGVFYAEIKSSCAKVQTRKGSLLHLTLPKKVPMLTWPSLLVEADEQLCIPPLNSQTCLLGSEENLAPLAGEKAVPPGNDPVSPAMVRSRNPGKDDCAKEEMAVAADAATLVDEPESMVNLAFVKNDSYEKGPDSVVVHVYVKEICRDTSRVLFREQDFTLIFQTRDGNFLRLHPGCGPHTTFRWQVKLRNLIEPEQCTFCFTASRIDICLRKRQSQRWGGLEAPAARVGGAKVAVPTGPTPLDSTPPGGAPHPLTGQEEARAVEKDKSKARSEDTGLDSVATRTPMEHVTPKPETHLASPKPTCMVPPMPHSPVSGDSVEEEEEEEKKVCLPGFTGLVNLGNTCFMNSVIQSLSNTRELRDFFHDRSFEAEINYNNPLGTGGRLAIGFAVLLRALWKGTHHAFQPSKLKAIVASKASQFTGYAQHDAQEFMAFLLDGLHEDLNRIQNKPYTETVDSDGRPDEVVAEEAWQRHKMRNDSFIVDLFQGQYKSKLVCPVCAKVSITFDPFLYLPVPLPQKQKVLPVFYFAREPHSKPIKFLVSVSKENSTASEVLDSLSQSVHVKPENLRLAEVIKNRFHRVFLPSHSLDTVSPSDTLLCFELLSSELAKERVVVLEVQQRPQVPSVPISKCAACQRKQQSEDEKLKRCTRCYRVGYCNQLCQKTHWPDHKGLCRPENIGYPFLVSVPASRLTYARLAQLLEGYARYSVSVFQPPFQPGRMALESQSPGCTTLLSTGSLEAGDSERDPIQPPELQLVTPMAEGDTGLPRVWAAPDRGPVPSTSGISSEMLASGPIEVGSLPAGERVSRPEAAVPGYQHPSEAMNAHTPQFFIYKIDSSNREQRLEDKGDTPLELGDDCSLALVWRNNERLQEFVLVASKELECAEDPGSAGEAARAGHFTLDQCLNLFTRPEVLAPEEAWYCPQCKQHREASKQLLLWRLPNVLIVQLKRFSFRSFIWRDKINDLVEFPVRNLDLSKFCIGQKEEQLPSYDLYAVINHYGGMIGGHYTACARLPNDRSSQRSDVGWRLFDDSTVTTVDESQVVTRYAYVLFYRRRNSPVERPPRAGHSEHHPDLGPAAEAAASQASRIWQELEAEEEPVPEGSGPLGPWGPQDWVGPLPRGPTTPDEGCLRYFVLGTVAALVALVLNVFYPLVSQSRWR
Ubiquitin carboxyl-terminal hydrolase 8, sequence (P40818 whole entry): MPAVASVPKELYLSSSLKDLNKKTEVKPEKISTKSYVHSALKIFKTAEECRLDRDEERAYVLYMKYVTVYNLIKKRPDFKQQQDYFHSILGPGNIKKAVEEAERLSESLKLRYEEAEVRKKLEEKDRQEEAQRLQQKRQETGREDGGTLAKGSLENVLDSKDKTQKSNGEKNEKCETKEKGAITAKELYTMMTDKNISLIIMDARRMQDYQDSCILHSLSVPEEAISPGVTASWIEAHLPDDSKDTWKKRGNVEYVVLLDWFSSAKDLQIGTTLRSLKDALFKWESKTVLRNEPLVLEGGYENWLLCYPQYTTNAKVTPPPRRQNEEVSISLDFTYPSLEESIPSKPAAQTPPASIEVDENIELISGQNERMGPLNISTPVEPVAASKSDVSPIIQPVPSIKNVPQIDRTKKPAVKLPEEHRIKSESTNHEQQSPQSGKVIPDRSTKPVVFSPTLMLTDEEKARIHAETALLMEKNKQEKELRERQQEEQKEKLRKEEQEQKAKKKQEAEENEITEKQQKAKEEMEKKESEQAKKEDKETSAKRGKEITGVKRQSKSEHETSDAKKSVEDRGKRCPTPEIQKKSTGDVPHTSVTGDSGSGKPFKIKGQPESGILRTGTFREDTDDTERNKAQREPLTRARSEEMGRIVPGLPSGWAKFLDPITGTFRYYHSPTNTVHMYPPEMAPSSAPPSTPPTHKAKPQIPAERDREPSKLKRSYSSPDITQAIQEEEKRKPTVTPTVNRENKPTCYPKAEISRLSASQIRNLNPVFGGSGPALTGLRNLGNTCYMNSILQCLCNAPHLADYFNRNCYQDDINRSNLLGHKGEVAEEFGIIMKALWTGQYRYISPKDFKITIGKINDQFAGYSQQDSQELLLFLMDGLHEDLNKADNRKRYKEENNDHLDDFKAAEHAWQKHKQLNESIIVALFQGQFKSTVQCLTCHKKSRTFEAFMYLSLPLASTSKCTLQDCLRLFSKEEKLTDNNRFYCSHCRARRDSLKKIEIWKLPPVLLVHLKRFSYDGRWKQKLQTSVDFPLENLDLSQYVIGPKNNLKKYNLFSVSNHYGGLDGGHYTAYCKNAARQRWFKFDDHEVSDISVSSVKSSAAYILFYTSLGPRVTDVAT
Deubiquitinating protein VCPIP1, sequence (Q96JH7 whole entry, the tested form may be a part): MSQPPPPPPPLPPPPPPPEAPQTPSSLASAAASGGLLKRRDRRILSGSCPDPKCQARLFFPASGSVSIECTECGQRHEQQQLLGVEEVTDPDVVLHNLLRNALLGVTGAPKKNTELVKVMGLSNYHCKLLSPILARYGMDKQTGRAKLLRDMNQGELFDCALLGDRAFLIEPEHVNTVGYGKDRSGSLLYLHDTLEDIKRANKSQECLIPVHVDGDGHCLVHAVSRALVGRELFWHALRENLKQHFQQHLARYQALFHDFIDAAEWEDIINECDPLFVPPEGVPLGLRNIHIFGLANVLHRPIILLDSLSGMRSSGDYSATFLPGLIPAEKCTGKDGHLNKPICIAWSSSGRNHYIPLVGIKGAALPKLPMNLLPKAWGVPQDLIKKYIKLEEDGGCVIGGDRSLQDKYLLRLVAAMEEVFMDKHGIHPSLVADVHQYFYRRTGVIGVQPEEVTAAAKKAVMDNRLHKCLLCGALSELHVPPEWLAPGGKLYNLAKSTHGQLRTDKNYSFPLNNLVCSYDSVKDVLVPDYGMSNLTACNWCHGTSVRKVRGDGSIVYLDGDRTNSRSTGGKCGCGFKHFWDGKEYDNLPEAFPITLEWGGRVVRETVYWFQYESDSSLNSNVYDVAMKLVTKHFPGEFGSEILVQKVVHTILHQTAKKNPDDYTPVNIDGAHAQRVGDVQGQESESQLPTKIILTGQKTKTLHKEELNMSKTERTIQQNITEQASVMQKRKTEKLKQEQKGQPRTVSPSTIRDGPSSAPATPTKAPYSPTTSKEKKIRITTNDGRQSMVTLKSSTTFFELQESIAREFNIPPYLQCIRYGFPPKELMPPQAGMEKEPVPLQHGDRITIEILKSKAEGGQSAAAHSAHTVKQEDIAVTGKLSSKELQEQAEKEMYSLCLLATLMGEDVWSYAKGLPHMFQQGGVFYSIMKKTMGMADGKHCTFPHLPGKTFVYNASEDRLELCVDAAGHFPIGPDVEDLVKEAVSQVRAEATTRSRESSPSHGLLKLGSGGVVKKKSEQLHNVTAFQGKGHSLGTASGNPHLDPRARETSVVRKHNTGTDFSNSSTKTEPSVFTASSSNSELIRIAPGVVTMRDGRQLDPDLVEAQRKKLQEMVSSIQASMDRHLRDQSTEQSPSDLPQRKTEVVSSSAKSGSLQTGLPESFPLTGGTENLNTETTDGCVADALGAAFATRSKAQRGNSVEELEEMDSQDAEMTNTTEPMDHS

Usually IC50 stands for the concentration needed to halve the response being measured. As for `Cc1cc(Cl)cc(-c2ccnc3cc(CN4C(=O)C5C(C4=O)C5(C)C)sc23)c1O[C@@H]1CCNC[C@@H]1C` (stereo partly specified), the IC50 in test [1], in test [2], in test [3], in test [4] and in test [5] was above 10 µM in each case. Besides, the Ratio IC50 in the test listed under Homo sapiens is above 50000.
